Data from US12686668B2, “Leukotriene synthesis inhibitors” (Naegis Pharmaceuticals Inc., priority 2019, dated 2026).

How the values were obtained:
[1] = test system: LPS-induced neutrophil infiltration into the lung; assay: Lipopolysaccharide (LPS) mouse lung inflammation model; type: in vivo, CD-1 mice; settings: 10 mg/kg oral, 1 hr before and 2 hrs after LPS 2.5 mg/kg intratracheal, BAL 6 hr post-LPS
Protocol: In this model, LPS was instilled into the lungs of mice to induce a neutrophilia in the lung tissue. The neutrophilia can be measured in the BAL fluid during lung lavage at various times after challenge with LPS. The neutrophilia develops with a significant increase in cells in the BAL after 6 hrs and achieves a maximum response by 24 hrs. CD-1 mice received lipopolysaccharide (LPS) 2.5 mg/kg in phosphate buffered saline (PBS) or PBS in a volume of 50 μL by intracheal instillation into the lung. The animals were lightly anesthetized using isofluorane to enable application of the LPS. When anesthetized the animals were placed on a board at an angle of 45°. The tongue was rolled to one side and LPS was administered directly into the trachea in a volume of 50 μL. The animal remained in position for 1-2 minutes to ensure the LPS remained in the lung. At the end of the LPS challenge time, animals were euthanized by an overdose of isofluorane. The trachea was exposed and the lungs were intubated using a 21 G catheter tube. The lungs were lavaged with 2×1 mL of PBS at room temperature. […] The differential cell counts were determined using an automated cell counter (Abraxia) set to measure mouse cells. Cell concentration of the resuspended sample was expressed as total cells recovered in the total volume of recovered BAL. […]

[2] = Solubilized concentration of compound in eye drop formulation (HPLC); type: physicochemical; settings: eye drop formulation: 20% hydroxypropyl β-cyclodextrin, 0.5% HPMC, 1.6 mM EDTA in PBS
Protocol: (§1) Eye drops were prepared by adding compounds at a theoretical concentration of 10 mg/mL to a 2 mL microcentrifuge tube before adding a stir bar and the selected formulation that consisted of (w/v) hydroxypropyl β-cyclodextrin (Trappsol) (20%), hydroxyl propyl methylcellulose (0.5%) and EDTA (1.6 mM) in phosphate buffered saline. Tubes containing compound in eye drop formulation were heated to 60-65° C. and stirred at least 4 hours to overnight. The tubes were removed from the heat bath and centrifuged at 10,000 ref for 5 minutes to clear the solution of any residual drug not in solution. The supernatant was removed from the tubes and one 10 μL sample was removed for HPLC analysis of solubilized by HPLC using an ACE C18 column (4.5 mm×150 mm, 5 m), eluted with acetonitrile/methanol/water mixture with H3PO4, pH 3.5 (50:30:20) with a flow rate of 2.5 mL/min. The solubilized concentration of each compound was calculated by interpolation from a standard curve based on reference standards solubilized in methanol when the assay was validated.
In Table 6, the data from distribution studies performed in Lewis rats show the concentration of each compound present in the retina 0.5 hr after the administration of a 10 μL drop of each topical formation is provided. Compounds were paired and individual formulations mixed at a ratio to make a mixture that contained ~2.5 mg/mL of each compound.

[3] = Rat ocular distribution model, retina after topical drop; type: in vivo; settings: Lewis rats, 10 μL topical drop
Protocol: as §1
Compounds were applied as a single 10 μL drop to rats and the aqueous humor, and the posterior segment of the eye (vitreous body and retina) were collected from each eye at the time point assigned after the eye was irrigated to remove any residual formulation present. Tissues were collected in pre-weighed collection tubes and the tissue weight was determined for each sample. An internal standard (IS) mixture containing a reference compound at a ratio of 1 μL to 4 mg tissue was added to samples, mixed and then diluted×4.25 in acetonitrile:methanol (9:1). Aqueous humour samples were vortex mixed for 10 s. The vitreous body & retina were vortex mixed 2 times each for 10 s, and further mixed for 6 min on a tabletop shaker at 750 rpm followed by final vortex mixing (10 s). All samples were centrifuged to pellet any particulate matter and the supernatant was transferred to LC vials. A 10 μL sample was then applied to the HPLC during LC/MS/MS analysis. A calibration curve for compounds (0.588-176.471 ng/mL) was prepared in rat plasma to estimate concentrations of compounds in each of the matrices analyzed using the area under curve (AUC) normalized to internal standard AUC for determining response. The assumption was made that 1 mg tissue is equivalent to 1 μL plasma. Concentrations measured in each tissue were then normalized to the amount of drug applied to account for differences in solubilized drug in each formulation. The average concentration and the standard deviation was determined based on “n”=number of eyes assessed, rather than the number of animals. […]

With `CCC(O)(CCc1ccc(Oc2nc3c(SC)cccc3s2)c(OC)c1)C(F)(F)F` (stereo not drawn) [Compound 104, 1-{3-methoxy-4-[(4-methylsulfanyl-1,3-benzothiazol-2-yl)oxy]phenyl}-3-(trifluoromethyl)pentan-3-ol] the “Effect on LPS-induced neutrophil infiltration into the lung (BAL)” value [1] was “inhibitory effect”, the Concentration of compound in formulation [2] was 2860 µg/mL and the “Concentration of compound in retina 0.5 hr after administration per mg compound applied (Avg ± SD) n = 2” value [3] was 3340 ± 1061 ng/mL per mg compound applied.
